Data published in PubChem BioAssay (NCI).
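Each compound was tested at five concentrations against cells in 96-well plates for 48 hours. GI50: concentration for 50% inhibition of growth. TGI: concentration producing complete growth inhibition.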

Assays:
Assay in all cases: inhibition of tumour cell growth, NCI panel, 48 h
NCI-H226 lung = tested on: NCI-H226 lung
M14 melanoma = tested on: M14 melanoma
SN12C renal = tested on: SN12C renal
HOP-92 NSCLC = tested on: HOP-92 NSCLC
SR leukemia = tested on: SR leukemia
SK-MEL-2 melanoma = tested on: SK-MEL-2 melanoma
HOP-62 NSCLC = tested on: HOP-62 NSCLC
OVCAR-5 ovarian = tested on: OVCAR-5 ovarian
OVCAR-4 ovarian = tested on: OVCAR-4 ovarian
DU-145 prostate = tested on: DU-145 prostate

SMILES	GI50 (NCI-H226 lung) [µM]	TGI (NCI-H226 lung) [µM]	GI50 (M14 melanoma) [µM]	TGI (M14 melanoma) [µM]	GI50 (SN12C renal) [µM]	TGI (SN12C renal) [µM]	GI50 (HOP-92 NSCLC) [µM]	TGI (HOP-92 NSCLC) [µM]	GI50 (SR leukemia) [µM]	TGI (SR leukemia) [µM]	GI50 (SK-MEL-2 melanoma) [µM]	TGI (SK-MEL-2 melanoma) [µM]	GI50 (HOP-62 NSCLC) [µM]	TGI (HOP-62 NSCLC) [µM]	GI50 (OVCAR-5 ovarian) [µM]	TGI (OVCAR-5 ovarian) [µM]	GI50 (OVCAR-4 ovarian) [µM]	TGI (OVCAR-4 ovarian) [µM]	GI50 (DU-145 prostate) [µM]	TGI (DU-145 prostate) [µM]
CN1CCN(c2nc(NCCCCNc3ccnc4cc(Cl)ccc34)c3ccccc3n2)CC1	20.7	45.8	1.83	3.47	4.73	20	1.66	4.12	2.29	6.27	2.11	4.48	5.15	20.2	2.98	15.8	2.14	6.99	7	21.7
COc1cc(Cn2c(=S)ss/c2=N\C(=S)N(C)C)cc(OC)c1OC		> 71		> 70.7		> 100		56.3		> 61.2		> 100		> 84.1		> 100		> 95.6		> 39.5
Cn1ccnc1C(=O)/C=C/c1ccc(CC(=O)Nc2ccc(S(F)(F)(F)(F)F)cc2)cc1	2.93	7.02	3.16	6.55	2.93	7.17	1.13	3.92	0.53	1.86	3.59	10	2.58	6.18	2.12	5.1	2.35	9.07	2.25	4.53
CC(CN1CCN(C)CC1)CN1c2ccccc2Sc2ccc(C(F)(F)F)cc21 (configuration not stated)	2.6	8.51	1.75	3.25	4.07	14.5	1.25	4.38	2.01	5.32	2.09	3.74	1.71	3.17	1.53	3.13	2.16	4.4	2.8	6.99
COc1ccn2c(C(C)=O)cc(C(=O)c3ccc4c(c3)Sc3ccccc3N4)c2c1	0.286	> 100	0.0853	> 100	0.33	> 100		> 100	0.0567	> 100		> 100	0.136	> 100	0.229	> 100		> 100	0.122	> 100
COC1(O)C(=O)c2ccccc2OC1(OC)c1ccccc1 (configuration not stated)		> 100		> 100		> 100		> 100		> 100		> 100		> 100		> 100		> 100		> 100
CS(=O)(=O)c1ccc(-c2cnc(N)c(C(=O)Nc3ccccc3)n2)cc1	> 100	> 100	20.7	> 100	6.81	> 100	24.3	> 100	2.39	> 100	7.87	> 96	18.8	> 100	> 100	> 100	9.86	> 100	8.35	> 100
CN(C)c1ccc(-c2cc(-c3ccc(Nc4nc(Nc5ccccc5)nc(Nc5ccc(Cl)cc5)n4)cc3)nc(N)n2)cc1	12.1	98.7	3.65	17.6	7.52	42.2	1.48	13.2	1.39	5.02	7.18	43.5	8.01	42.4	16.1	91.5	5.01	> 100	8.09	21.4
